Active and inactive are the calls of the source. How the calls were made is not given here.
System: CCRIS mutagenicity, Ames/micronucleus/aberration tests
Assay: CCRIS mutagenicity studies

With Nc1ccc([N+](=O)[O-])cc1O the mutagenic call (End Point: IN VITRO CHROMOSOMAL ABERRATIONS, Test System: CHO CELLS, Metabolic Activation: NONE) was “active; positive; precipitation occurred at 100.5 and 149.9 ug/ml”, the mutagenic call (End Point: IN VITRO CHROMOSOMAL ABERRATIONS, Test System: CHO CELLS, Metabolic Activation: RAT, LIVER, S-9, AROCLOR 1254) was “active; positive; precipitation occurred at both doses” and the mutagenic call (Test System: AMES SALMONELLA TYPHIMURIUM, Strain/Indicator: TA98, Metabolic Activation: HAMSTER, LIVER, S-9, AROCLOR 1254 (10%), Method: PREINCUBATION) was “active; positive”. For the same compound, the mutagenic call (Test System: AMES SALMONELLA TYPHIMURIUM, Strain/Indicator: TA98, Metabolic Activation: HAMSTER, LIVER, S-9, AROCLOR 1254, Method: PREINCUBATION) was “active; positive”, the mutagenic call (Test System: AMES SALMONELLA TYPHIMURIUM, Strain/Indicator: TA98, Metabolic Activation: NONE, Method: FLUCTUATION (MICROTITER)) was “active; positive” and the mutagenic call (Test System: AMES SALMONELLA TYPHIMURIUM, Strain/Indicator: TA98, Metabolic Activation: NONE, Method: PREINCUBATION) was “active; positive”. For the same compound, the mutagenic call (Test System: AMES SALMONELLA TYPHIMURIUM, Strain/Indicator: TA98, Metabolic Activation: NONE, Method: STANDARD PLATE) was “active; positive”, the mutagenic call (Test System: AMES SALMONELLA TYPHIMURIUM, Strain/Indicator: TA98, Metabolic Activation: RAT, LIVER, S-9, AROCLOR 1254 (10%), Method: PREINCUBATION) was “active; positive” and the mutagenic call (Test System: AMES SALMONELLA TYPHIMURIUM, Strain/Indicator: TA98, Metabolic Activation: RAT, LIVER, S-9, AROCLOR 1254, Method: PREINCUBATION) was “active; positive”. The mutagenic call (Test System: AMES SALMONELLA TYPHIMURIUM, Strain/Indicator: TA98, Metabolic Activation: RAT, LIVER, S-9, AROCLOR 1254, Method: STANDARD PLATE) was “inactive; negative”, the mutagenic call (Test System: AMES SALMONELLA TYPHIMURIUM, Strain/Indicator: TA100, Metabolic Activation: HAMSTER, LIVER, S-9, AROCLOR 1254 (10%), Method: PREINCUBATION) was “inactive; negative” and the mutagenic call (Test System: AMES SALMONELLA TYPHIMURIUM, Strain/Indicator: TA100, Metabolic Activation: NONE, Method: PREINCUBATION) was “inactive; negative”. The mutagenic call (Test System: AMES SALMONELLA TYPHIMURIUM, Strain/Indicator: TA100, Metabolic Activation: RAT, LIVER, S-9, AROCLOR 1254 (10%), Method: PREINCUBATION) was “inactive; negative”, the mutagenic call (Test System: AMES SALMONELLA TYPHIMURIUM, Strain/Indicator: TA1535, Metabolic Activation: HAMSTER, LIVER, S-9, AROCLOR 1254 (10%), Method: PREINCUBATION) was “inactive; negative” and the mutagenic call (Test System: AMES SALMONELLA TYPHIMURIUM, Strain/Indicator: TA1535, Metabolic Activation: HAMSTER, LIVER, S-9, AROCLOR 1254, Method: PREINCUBATION) was “inactive; negative”. The mutagenic call (Test System: AMES SALMONELLA TYPHIMURIUM, Strain/Indicator: TA1535, Metabolic Activation: NONE, Method: PREINCUBATION) was “inactive; negative”, the mutagenic call (Test System: AMES SALMONELLA TYPHIMURIUM, Strain/Indicator: TA1535, Metabolic Activation: RAT, LIVER, S-9, AROCLOR 1254 (10%), Method: PREINCUBATION) was “inactive; negative” and the mutagenic call (Test System: AMES SALMONELLA TYPHIMURIUM, Strain/Indicator: TA1535, Metabolic Activation: RAT, LIVER, S-9, AROCLOR 1254, Method: PREINCUBATION) was “inactive; negative”. For the same compound, the mutagenic call (Test System: AMES SALMONELLA TYPHIMURIUM, Strain/Indicator: TA1537, Metabolic Activation: HAMSTER, LIVER, S-9, AROCLOR 1254 (10%), Method: PREINCUBATION) was “active; positive”, the mutagenic call (Test System: AMES SALMONELLA TYPHIMURIUM, Strain/Indicator: TA1537, Metabolic Activation: HAMSTER, LIVER, S-9, AROCLOR 1254, Method: PREINCUBATION) was “active; positive” and the mutagenic call (Test System: AMES SALMONELLA TYPHIMURIUM, Strain/Indicator: TA1537, Metabolic Activation: NONE, Method: FLUCTUATION (MICROTITER)) was “inactive; negative”. The mutagenic call (Test System: AMES SALMONELLA TYPHIMURIUM, Strain/Indicator: TA1537, Metabolic Activation: NONE, Method: PREINCUBATION) was “active; positive”, the mutagenic call (Test System: AMES SALMONELLA TYPHIMURIUM, Strain/Indicator: TA1537, Metabolic Activation: RAT, LIVER, S-9, AROCLOR 1254 (10%), Method: PREINCUBATION) was “active; positive” and the mutagenic call (Test System: AMES SALMONELLA TYPHIMURIUM, Strain/Indicator: TA1537, Metabolic Activation: RAT, LIVER, S-9, AROCLOR 1254, Method: PREINCUBATION) was “active; positive”. For the same compound, the mutagenic call (Test System: AMES SALMONELLA TYPHIMURIUM, Strain/Indicator: TA7001, Metabolic Activation: NONE, Method: FLUCTUATION (MICROTITER)) was “inactive; negative”, the mutagenic call (Test System: AMES SALMONELLA TYPHIMURIUM, Strain/Indicator: TA7002, Metabolic Activation: NONE, Method: FLUCTUATION (MICROTITER)) was “inactive; negative” and the mutagenic call (Test System: AMES SALMONELLA TYPHIMURIUM, Strain/Indicator: TA7003, Metabolic Activation: NONE, Method: FLUCTUATION (MICROTITER)) was “inactive; negative”. The mutagenic call (Test System: AMES SALMONELLA TYPHIMURIUM, Strain/Indicator: TA7004, Metabolic Activation: NONE, Method: FLUCTUATION (MICROTITER)) was “inactive; negative”, the mutagenic call (Test System: AMES SALMONELLA TYPHIMURIUM, Strain/Indicator: TA7005, Metabolic Activation: NONE, Method: FLUCTUATION (MICROTITER)) was “inactive; negative” and the mutagenic call (Test System: AMES SALMONELLA TYPHIMURIUM, Strain/Indicator: TA7006, Metabolic Activation: NONE, Method: FLUCTUATION (MICROTITER)) was “inactive; negative”. For the same compound, the mutagenic call (Test System: MOUSE LYMPHOMA, Strain/Indicator: L5178Y (TK+/TK-), Metabolic Activation: NONE, Method: SUSPENSION/PLATE) was “active; positive”.

For COc1ccc2cc3c4c(cc(OC)c(OC)c4c2c1)CCN3C, the mutagenic call (Test System: AMES SALMONELLA TYPHIMURIUM, Strain/Indicator: TA100, Metabolic Activation: RAT, LIVER, S-9, PHENOBARBITAL AND BETA-NAPHTHOFLAVONE, Method: PREINCUBATION) was “inactive; negative”.
